The text below walks through data of ChEMBL document CHEMBL1201862, “PubChem BioAssay data set” (2004).

The source made the active and inactive calls. Bounds are passed on as bounds.

One assay concerns the target T1, Caspase-6 (Homo sapiens, UniProt P55212).
T1 sequence (P55212 whole entry): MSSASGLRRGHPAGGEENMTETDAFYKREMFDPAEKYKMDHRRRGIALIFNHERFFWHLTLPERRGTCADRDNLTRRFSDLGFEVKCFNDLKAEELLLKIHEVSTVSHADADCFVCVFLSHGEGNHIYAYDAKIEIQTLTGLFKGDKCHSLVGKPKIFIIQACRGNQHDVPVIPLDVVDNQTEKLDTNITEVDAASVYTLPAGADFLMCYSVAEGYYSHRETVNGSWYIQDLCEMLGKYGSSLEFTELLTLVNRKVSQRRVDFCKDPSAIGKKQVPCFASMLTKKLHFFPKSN
As to the kind of experiment: inhibition of CASP6 peptide cleavage – biochemical, VEID-R110 fluorescence, cherry-pick, dose response (AID 720632).

Assay [1] can be described thus: A cytotoxicity screen of small molecule inhibitors of the PhoP region in Salmonella typhi identified in the primary screen. [Related pubchem assays: 1850, 1864, 1985 ]. Format: functional.
A further assay concerns the target T2, Coagulation factor XII (Homo sapiens, UniProt P00748).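 Note: activated factor XIIa alpha cleaving a fluorogenic AMC peptide substrate; inhibitor potency from loss of enzyme activity.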
T2 sequence (P00748 whole entry): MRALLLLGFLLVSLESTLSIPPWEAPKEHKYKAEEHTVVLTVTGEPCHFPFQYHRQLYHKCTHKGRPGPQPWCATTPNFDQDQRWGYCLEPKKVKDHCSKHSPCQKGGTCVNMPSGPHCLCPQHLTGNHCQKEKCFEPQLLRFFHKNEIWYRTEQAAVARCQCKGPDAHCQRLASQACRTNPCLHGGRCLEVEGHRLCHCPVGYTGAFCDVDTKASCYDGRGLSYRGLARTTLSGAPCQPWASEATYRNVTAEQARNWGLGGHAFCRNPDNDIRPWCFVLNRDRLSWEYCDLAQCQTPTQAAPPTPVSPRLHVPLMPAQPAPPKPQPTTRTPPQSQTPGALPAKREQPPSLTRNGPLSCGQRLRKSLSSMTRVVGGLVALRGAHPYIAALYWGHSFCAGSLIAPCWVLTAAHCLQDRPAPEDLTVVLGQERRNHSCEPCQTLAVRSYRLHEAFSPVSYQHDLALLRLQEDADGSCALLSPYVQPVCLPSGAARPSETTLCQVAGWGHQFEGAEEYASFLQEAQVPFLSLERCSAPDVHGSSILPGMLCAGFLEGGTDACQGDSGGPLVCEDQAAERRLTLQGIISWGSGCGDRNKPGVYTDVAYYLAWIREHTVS
Format: functional.

The next assay deals with T3, Caspase-3 (Homo sapiens, UniProt P42574).
T3 sequence (P42574 whole entry): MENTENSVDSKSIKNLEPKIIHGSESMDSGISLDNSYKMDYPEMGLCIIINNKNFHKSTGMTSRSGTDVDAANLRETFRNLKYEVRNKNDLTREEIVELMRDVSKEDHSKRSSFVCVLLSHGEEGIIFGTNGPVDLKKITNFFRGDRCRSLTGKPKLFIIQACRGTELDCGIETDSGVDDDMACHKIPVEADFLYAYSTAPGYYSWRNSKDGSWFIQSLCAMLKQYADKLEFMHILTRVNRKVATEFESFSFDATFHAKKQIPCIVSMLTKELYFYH
Format: functional.

In assay [2] the target is T4, Sentrin-specific protease 8 (Homo sapiens, UniProt Q96LD8).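 Note: luminescence read-out of SENP8 inhibition, dose-response confirmation following an ultra-high-throughput screen.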
T4 sequence (Q96LD8 whole entry): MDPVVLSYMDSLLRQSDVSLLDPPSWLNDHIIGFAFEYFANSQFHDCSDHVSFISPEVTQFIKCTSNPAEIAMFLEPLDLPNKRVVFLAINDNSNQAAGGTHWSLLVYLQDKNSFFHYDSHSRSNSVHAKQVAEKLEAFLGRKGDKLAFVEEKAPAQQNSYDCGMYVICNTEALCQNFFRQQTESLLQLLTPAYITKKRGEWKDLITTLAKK
Format: functional.

In assay [3] the target is T5, Sentrin-specific protease 6 (Homo sapiens, UniProt Q9GZR1).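 Note: Luminescence-based dose-response confirmatory assay of SENP6 inhibition, following up an ultra-high-throughput screen.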
T5 sequence (Q9GZR1 whole entry): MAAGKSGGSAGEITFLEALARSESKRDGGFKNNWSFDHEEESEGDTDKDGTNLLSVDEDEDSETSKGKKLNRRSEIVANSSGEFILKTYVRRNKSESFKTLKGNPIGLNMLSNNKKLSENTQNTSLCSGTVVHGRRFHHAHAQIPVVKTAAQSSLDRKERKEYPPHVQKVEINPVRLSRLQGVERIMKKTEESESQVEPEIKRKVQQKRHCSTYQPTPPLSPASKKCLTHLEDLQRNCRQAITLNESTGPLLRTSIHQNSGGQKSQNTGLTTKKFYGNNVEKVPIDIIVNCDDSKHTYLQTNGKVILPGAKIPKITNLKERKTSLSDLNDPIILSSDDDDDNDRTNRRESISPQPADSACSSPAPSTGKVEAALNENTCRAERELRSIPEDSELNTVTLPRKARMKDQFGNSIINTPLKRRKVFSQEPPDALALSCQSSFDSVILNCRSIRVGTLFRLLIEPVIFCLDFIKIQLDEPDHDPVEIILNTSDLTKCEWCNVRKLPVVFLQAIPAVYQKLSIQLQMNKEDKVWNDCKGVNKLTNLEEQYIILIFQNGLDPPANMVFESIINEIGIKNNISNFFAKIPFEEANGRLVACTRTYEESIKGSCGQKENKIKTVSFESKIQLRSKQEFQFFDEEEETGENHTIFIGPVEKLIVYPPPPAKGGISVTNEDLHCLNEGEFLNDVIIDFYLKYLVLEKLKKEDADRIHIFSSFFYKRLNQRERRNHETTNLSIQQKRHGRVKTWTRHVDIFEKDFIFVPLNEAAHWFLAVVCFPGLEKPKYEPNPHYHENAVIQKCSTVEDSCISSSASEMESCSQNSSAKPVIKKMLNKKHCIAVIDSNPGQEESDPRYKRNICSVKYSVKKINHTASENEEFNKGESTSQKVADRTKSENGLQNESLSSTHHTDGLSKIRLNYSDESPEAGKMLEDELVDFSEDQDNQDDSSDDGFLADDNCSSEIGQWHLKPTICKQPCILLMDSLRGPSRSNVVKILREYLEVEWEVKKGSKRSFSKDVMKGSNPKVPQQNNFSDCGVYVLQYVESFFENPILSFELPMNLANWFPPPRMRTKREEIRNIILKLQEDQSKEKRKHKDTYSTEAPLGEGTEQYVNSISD
Format: functional.

The target in assay [4] is T6, Sentrin-specific protease 7 (Homo sapiens, UniProt Q9BQF6).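 Note: Luminescence-based dose-response confirmation of ultra-high-throughput screening hits, measuring inhibition of SENP7.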
T6 sequence (Q9BQF6 whole entry): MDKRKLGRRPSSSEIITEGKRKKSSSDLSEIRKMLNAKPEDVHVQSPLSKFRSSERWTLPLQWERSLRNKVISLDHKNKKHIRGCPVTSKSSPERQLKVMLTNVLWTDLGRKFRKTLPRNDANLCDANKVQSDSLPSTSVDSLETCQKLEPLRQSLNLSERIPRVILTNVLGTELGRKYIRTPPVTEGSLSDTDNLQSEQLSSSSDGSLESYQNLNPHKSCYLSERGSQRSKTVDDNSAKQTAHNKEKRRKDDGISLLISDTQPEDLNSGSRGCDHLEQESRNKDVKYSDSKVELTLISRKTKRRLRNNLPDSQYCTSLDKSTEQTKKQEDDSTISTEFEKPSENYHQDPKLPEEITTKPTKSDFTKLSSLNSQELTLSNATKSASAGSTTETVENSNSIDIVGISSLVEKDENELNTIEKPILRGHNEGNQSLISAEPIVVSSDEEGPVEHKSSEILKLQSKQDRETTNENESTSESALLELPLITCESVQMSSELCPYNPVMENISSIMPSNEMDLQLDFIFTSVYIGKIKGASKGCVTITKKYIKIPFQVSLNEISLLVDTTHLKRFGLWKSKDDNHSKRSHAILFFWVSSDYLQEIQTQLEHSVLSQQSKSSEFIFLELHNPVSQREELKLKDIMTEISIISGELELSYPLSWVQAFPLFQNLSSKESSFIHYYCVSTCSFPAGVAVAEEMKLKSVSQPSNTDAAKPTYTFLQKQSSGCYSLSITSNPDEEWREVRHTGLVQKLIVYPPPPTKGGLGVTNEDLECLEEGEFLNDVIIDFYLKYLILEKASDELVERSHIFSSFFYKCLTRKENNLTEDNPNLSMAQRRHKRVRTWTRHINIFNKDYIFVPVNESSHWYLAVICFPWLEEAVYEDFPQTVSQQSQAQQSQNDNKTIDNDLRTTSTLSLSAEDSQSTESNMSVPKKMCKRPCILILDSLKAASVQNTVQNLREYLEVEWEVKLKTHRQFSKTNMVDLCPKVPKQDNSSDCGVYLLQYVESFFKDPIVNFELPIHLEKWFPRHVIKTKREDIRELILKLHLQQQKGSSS
Format: functional.

Assay [5] can be described thus: Trypanosoma cruzi growth suppression in host cells – NIH3T3 host cells, beta-gal luminescence, confirmation (AID 2044).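 Note: intracellular parasites grown in NIH/3T3 mouse fibroblasts as host cells; luminescent beta-galactosidase reporter signal from transgenic T. cruzi replicating inside host cells; inhibitors lower the luminescence signal.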 Format: functional, cell-based.
Assay [6] can be described thus: viability of uninfected HEp-2 cells – cell-based, HTS, cytotoxicity control for RSV inhibitor project, dose response (AID 2410). Format: functional. The note with it: human respiratory syncytial virus.
The nature of assay [7]: NIH3T3 cell viability loss – ATP luminescence, mouse fibroblasts, counter-screen, dose response (AID 2010).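 Note: cells exposed to compound for about 90 hours before reading.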 Format: functional, cell-based.
The target in a further assay is Cytochrome P450 2D6 (Homo sapiens, UniProt P10635).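 Note: CYP2D6 member of a cytochrome P450 panel assay.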
Assay [8] in a line: viability loss in THP-1 monocytes – THP-1 cells, cytotoxicity control for Vif-APOBEC3G degradation inhibitor project, dose response (AID 1117359). Format: functional. The note with it: THP-1.
The nature of assay [9]: blockers of HIV-1 envelope-mediated cell-cell fusion – cherry-pick, dose response (AID 652057). Format: functional, cell-based.
Assay [10] in a line: off-target signal loss in HeLa-CEM21 co-culture – HeLa F-luc CTL cells, cherry-picked, counter-screen for HIV-1 Env fusion inhibitor project, dose response (AID 652040).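 Note: potency for signal decrease marking cytotoxic or nonspecific inhibition.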 Format: functional, cell-based.
Assay [11] is described as follows: HIV-1 AD8 envelope cell-cell fusion blockers – cherry-pick, dose response (AID 652062).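 Note: luciferase signal from cell-cell fusion driven by HIV-1 clade B AD8 Env; potency is for inhibitors of fusion seen as a drop in luminescence.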 Format: functional, cell-based.
Assay [12] in a line: blockers of HIV-1 ZM109 envelope-driven cell-cell fusion – HeLa effector, CEM target cells, luciferase, cherry-pick, dose response (AID 652058).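 Note: luciferase signal from HIV-1 Env mediated cell-cell fusion of effector and target cells.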 Format: functional, cell-based.
A short description of assay [13]: OVCAR-3 cell viability loss – plate reader, dry powder samples, PAX8 inhibitor project, dose response (AID 743044). Format: functional, cell-based.
Assay [14] in a line: general cell-killing toxicity readout – plate reader, dry powder samples, cytotoxicity control for PAX8 inhibitor project, dose response (AID 743021). Format: functional, cell-based.
A further assay addresses Paired box protein Pax-8 (Homo sapiens, UniProt Q06710). Nature of the assay: PAX8 transcriptional activity inhibition in RMG-I – RMG-I cells, luciferase, cherry-pick, dose response (AID 687027).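 Note: luciferase reporter driven by Pax8 target thyroperoxidase promoter measured by SteadyGlo luminescence.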 Format: functional, cell-based.
Assay [15] can be described thus: OVCAR8 cell viability loss – plate reader, dry powder samples, PAX8 project, dose response (AID 743197). The note with it: OVCAR-8. Format: functional, cell-based.

Cytochrome P450 2D6, sequence (P10635 whole entry): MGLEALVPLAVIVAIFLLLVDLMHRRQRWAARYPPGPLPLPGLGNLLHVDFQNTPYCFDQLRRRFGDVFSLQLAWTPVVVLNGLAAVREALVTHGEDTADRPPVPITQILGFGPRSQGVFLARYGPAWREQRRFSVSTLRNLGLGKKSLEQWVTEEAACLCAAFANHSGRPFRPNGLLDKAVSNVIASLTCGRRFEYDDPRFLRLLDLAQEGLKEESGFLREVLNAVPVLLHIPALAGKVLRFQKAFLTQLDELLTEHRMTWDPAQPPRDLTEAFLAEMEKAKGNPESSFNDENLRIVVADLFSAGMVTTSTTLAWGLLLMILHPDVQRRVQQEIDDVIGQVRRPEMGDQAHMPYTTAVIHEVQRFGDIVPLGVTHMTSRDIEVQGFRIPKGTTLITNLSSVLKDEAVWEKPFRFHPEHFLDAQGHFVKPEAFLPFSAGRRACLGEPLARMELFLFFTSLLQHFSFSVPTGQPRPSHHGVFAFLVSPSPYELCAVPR
Paired box protein Pax-8, sequence (Q06710 whole entry): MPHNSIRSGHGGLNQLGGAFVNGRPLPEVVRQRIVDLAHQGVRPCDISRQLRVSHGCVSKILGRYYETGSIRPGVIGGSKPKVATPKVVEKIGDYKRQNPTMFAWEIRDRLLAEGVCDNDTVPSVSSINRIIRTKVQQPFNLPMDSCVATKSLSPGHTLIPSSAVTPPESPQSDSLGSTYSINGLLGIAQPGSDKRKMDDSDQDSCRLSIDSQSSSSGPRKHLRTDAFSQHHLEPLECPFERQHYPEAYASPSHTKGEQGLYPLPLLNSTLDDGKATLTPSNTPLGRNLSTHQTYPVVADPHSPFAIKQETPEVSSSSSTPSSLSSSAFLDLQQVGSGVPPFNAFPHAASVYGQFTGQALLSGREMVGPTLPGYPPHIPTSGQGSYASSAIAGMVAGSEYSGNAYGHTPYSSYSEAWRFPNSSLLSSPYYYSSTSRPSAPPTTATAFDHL

Take `O=C(O)c1c2c(nc3ccc(Cl)cc13)CCC2`: the AC50 on Caspase-6 is 28.8 µM (active).
On to `COCC1CCCN(Cc2c[nH]nc2-c2cc3ccccc3o2)C1` (configuration not stated), for which the EC50 in assay [1] was > 50 µM (active).
For the compound `COc1ccc(-c2cc(-c3nnc(COC(=O)CC4CC5CCC4C5)o3)c3ccccc3n2)cc1OC` (configuration not stated), the IC50 at Coagulation factor XII was > 50 µM (inactive).
On the same count and under the same terms, as for `COC(=O)c1ccccc1NC(=O)Nc1cc(C)ccn1`, the figure is > 50 µM (inactive).
Regarding `CCn1nnnc1SCC(=O)c1cc(Cl)ccc1OC`, the EC50 in assay [1] was > 50 µM (active).
Take `Cc1ccnc(Nc2nc(-c3ccccc3)cs2)c1`: the IC50 at Caspase-3 is 13.1 µM (active); in assay [2] it was 3.93 µM (active); in [3] it was 7.16 µM (active); in assay [4] it was 1.78 µM (active).
Turning to `O=C(COC(=O)c1cccc(NC(=O)c2ccco2)c1)c1ccc(Br)cc1`, the IC50 on Caspase-3 is 32.2 µM (active); in [2] it was 8.37 µM (active); in [3], 9.01 µM (active); in [4], 6.05 µM (active).
In the case of `O=C(Nc1ccc2[nH]c(-c3ccc(Br)o3)nc2c1)c1cccs1`, the results for the EC50 in [5], in [1] and in assay [7] were 3.18 µM (active), > 50 µM (active) and > 60 µM (not active), respectively. Further, in assay [6], the CC50 was 24 µM (active).
On to `Cc1ccc(S(=O)(=O)N(CC(=O)NCCC2=CCCCC2)Cc2ccccc2F)cc1`, for which the AC50 at Cytochrome P450 2D6 was 20 µM (inconclusive). Moreover, the CC50 in assay [8] was > 40 µM (active).
`Cc1c(C=O)c2ccccn2c1C(=O)c1ccccc1`: in assay [1], the EC50 was > 50 µM (active).
As for `CCC(=O)OCCn1c(=O)c2cc3c(=O)n(CCOC(=O)CC)c(=O)c3cc2c1=O`, the IC50 on Coagulation factor XII was > 50 µM (inactive).
Regarding `O=c1c(-c2cc(O)[nH]n2)c(O)c2ccccc2n1Cc1ccccc1`, the AC50 at Caspase-6 was 19.7 µM (active).
As for `CSCCC(NS(=O)(=O)c1ccc2c(c1)oc(=O)n2C)C(=O)NC1CCCc2ccccc21` (configuration not stated), the AC50 in [9] was 4.21 µM (active); in assay [10] it was 7.6 µM (active); in assay [11], 8.37 µM (active); in assay [12], 3.16 µM (active).
As to `O=C(OCC(=O)N1CCCc2ccccc21)c1ccc(Cl)nc1`, at Coagulation factor XII, the IC50 is > 50 µM (inactive).
In the case of `O=C1Cc2ccccc2C(=O)N1Nc1ccccc1`, on Caspase-6, the AC50 is 51.5 µM (active).
For `O=C(C[C@@H]1C[C@@H]2c3cc(NS(=O)(=O)c4ccc(F)cc4)ccc3O[C@@H]2[C@@H](CO)O1)NCc1ccc(Oc2ccccc2)cc1`, the AC50 in assay [13] was 22.1 µM (active); in assay [14], 27.8 µM (active); at Paired box protein Pax-8, 6.15 µM (active); in assay [15] it was 17.9 µM (active).
Regarding `CCc1ccc([C@H]2[C@@H]3C(=O)C[C@@H]4C(=O)N(C5CCCCC5)C(=O)[C@@H]4[C@@H]3CN2S(=O)(=O)c2ccc(C)cc2)cc1`, the AC50 in [9] was 1.09 µM (active); in assay [10], 2.53 µM (active); in [11] it was 2.15 µM (active); in assay [12], 1.99 µM (active).
As to `Cc1ccc(NC(=O)/C(CN(C)C)=N\O)cc1`, the IC50 on Coagulation factor XII is > 50 µM (inactive).
